Three compounds from PMC2724842 (Biochemistry, 2009) can be followed below.

SMILES strings stand for the structures. “Also recorded” adds a separate entry of the source. Marks after values point to notes of the source that are not given here.

Usually Km stands for the concentration of substrate that gives half-maximal velocity.

For one assay, the target named is Y169F IPMS (Mycobacterium tuberculosis, UniProt P9WQB3, Y169F). The format is biochemical. As to conditions: for Km: read-out: K1 (Km).
Assay [1] has as its target T1, E218A IPMS (Mycobacterium tuberculosis, UniProt P9WQB3, E218A). The class given is biochemical.
Assay [2] has as its target T2, H379A IPMS (Mycobacterium tuberculosis, UniProt P9WQB3, H379A). The format is biochemical.
For assay [3], the target named is T3, Y410F IPMS (Mycobacterium tuberculosis, UniProt P9WQB3, Y410F). The format is biochemical. The following applies: for Km: read-out: K1 (Km).
A further assay addresses Y169F MtIPMS (Mycobacterium tuberculosis, UniProt P9WQB3, Y169F). The format is biochemical.
Assay [4] has as its target T1, E218A IPMS. The format is biochemical. This is another data set of the same source.
Assay [5] has as its target T2, H379A IPMS. The format is biochemical. This is another data set of the same source.
The target of assay [6] is T3, Y410F IPMS. The class given is biochemical.
In assay [7] the target is T3, Y410F IPMS. The format is binding.
Assay [8] concerns the target T1, E218A IPMS. The class given is binding.

For `CC(C)C(=O)C(=O)O` [α-KIV, α-ketoisovalerate], on Y169F IPMS, the “kcat1 (kcat)” value turned out to be 4.75 ± 0.267 s⁻¹ and the Km was 13.4 ± 2.6 µM. At E218A IPMS [1], the K1 was 1.6 ± 0.2 µM, the K2 is 39 ± 11 µM, the kcat1 came out at 0.0367 ± 0.0017 s⁻¹ and the kcat2 is 0.0217 ± 0.0017 s⁻¹. On H379A IPMS [2], the K1 stood at 1.6 ± 1.1 µM, the K2 was 19 ± 6 µM, the kcat1 came out at 0.7 ± 0.3 s⁻¹ and the kcat2 was 1.48 ± 0.283 s⁻¹. At Y410F IPMS [3], the “kcat1 (kcat)” value came to 0.075 ± 0.0033 s⁻¹ and the Km turned out to be 0.5 ± 0.1 µM.

Consider `CC(=O)SCCNC(=O)CCNC(=O)[C@H](O)C(C)(C)COP(=O)(O)OP(=O)(O)OC[C@H]1O[C@@H](n2cnc3c(N)ncnc32)[C@H](O)[C@@H]1OP(=O)(O)O` [Acetyl-CoA, acetyl-coenzyme A], for which, on Y169F IPMS, the “kcat1 (kcat)” value worked out at 5.67 ± 0.217 s⁻¹ and the Km is 40 ± 6 µM. Moreover, at E218A IPMS [1], the K1 amounted to 9.5 ± 1.1 µM, the K2 came to 697 ± 615 µM, the kcat1 stood at 0.0583 ± 0.0033 s⁻¹ and the kcat2 is 0.0933 ± 0.0467 s⁻¹. The “kcat1 (kcat)” value at H379A IPMS [2] was determined as 2.55 ± 0.033 s⁻¹. Further, the Km at H379A IPMS [2] (read-out: K1 (Km)) was determined as 23 ± 1.5 µM. On Y410F IPMS [3], the “kcat1 (kcat)” value amounted to 0.0933 ± 0.0033 s⁻¹ and the Km was determined as 1.1 ± 0.2 µM.

For the compound `CC(C)C[C@H](N)C(=O)O` [L-leucine], at Y169F MtIPMS, the “inhibition at saturating L-leucine” value is on record as “fully inhibited; also recorded: completely inhibited”. At E218A IPMS [4], the “activity retained, vss data” value worked out at 16% and the “β, limiting value for vi” value is on record as 0.61/0.16 ^c. For the same compound, at H379A IPMS [5], the “activity retained at saturating L-leucine” value came out at 24% and the “β (fractional activity at saturating inhibitor)” value was found to be 0.24. Also, the “sensitivity to L-leucine inhibition” value at Y410F IPMS [6] was “insensitive”. On Y410F IPMS [7], the “N (stoichiometry for binding)” value is reported as 0.91 ± 0.01, the ΔH was found to be 2.598 ± 0.048 kcal/mol and the ΔS is 30.1 cal/mol/K. On E218A IPMS [8], the “N (stoichiometry for binding)” value is reported as 0.97 ± 0.01, the ΔH stood at 1.486 ± 0.031 kcal/mol and the ΔS amounted to 28.5 cal/mol/K.
